The values that follow come from patent US9650375B2, “Indole derivatives useful as anti-diabetic agents” (Merck Sharp & Dohme Corp., priority 2013, dated 2017).

One test deals with ob/ob and db/db mice. To be noted: following 8 weeks of administration; cited from earlier work.
The target in test [1] is T1, recombinant human AMPK complex 1 (containing α1β1γ1) (Homo sapiens, UniProt Q13131+Q9Y478).
T1 construct: made in house; host or cells: Spodoptera frugiperda Sf21 cells (baculovirus, triple infection)
The test can be described thus: In vitro AMPK activation assay (AMPKSAMSF), AMPK complex 1. The format is biochemical. The settings on record: for Emax: 10-point titration data expressed as % maximum AMP activation; for EC50: human AMPK complex 1, inflection point reflecting 50% of the maximum activation. Here is the method:
(§1) AMPKSAMSF (In Vitro AMPK Activation Assay)
(§2) The recombinant human AMPK complex 1 (containing α1β1γ1) and complex 7 (containing α2β1γ1) were obtained from baculovirus expression system. Recombinant viruses were generated by cotransfection of AMPK/pBacPak9 clones with Baculogold baculovirus DNA (Pharmingen) in spodoptera frugiperda 21 cells according to the manufacturer's instructions. Each round of virus amplification was performed for 5 days in Grace's medium containing 10% serum. Virus that had been subjected to three rounds of amplification was used for all protein production procedures. To express the AMPK complex, sf21 cells were adapted to serum free medium (SF900 II, Invitrogen) by sequential dilution from serum containing stocks into SF900II medium and maintained in shaker flasks at 90 rpm at 27° C. The recombinant AMPK enzyme complex was produced by triple infection, one recombinant virus for each of the subunits, in sf21 cells under serum free conditions. Cells were infected in log phase, 1×10^6 cells/ml, at a multiplicity of infection of ˜5. Cells were harvested by centrifugation at 10,000×g for 15 minutes after 72 hours of infection with viruses. The insect cell pellet from 2 liters of culture was resuspended in 50 ml lysis buffer (20 mM Tris-HCl, 50 mM NaCl, 50 mM NaF, 30 mM Na PPi, 0.25 M sucrose, 10 mM ZnCl2, 2 mM DTT, 0.4 mg/ml digitonin) and subjected to two cycles of freeze-thaw lysis in a dry-ice ethanol bath. Insoluble material was removed by centrifugation at 10,000×g and the supernatant was fractionated with use of polyethylene glycol (PEG). The protein fraction precipitating between 2.5 and 6% PEG was used for further purification using a Blue-Sepharose step (Zhou et al, J. Clin. Invest. 108, 1167-1174, 2001).
(§3) The in vitro AMPK activation assay is performed in a volume of 30 μl in a 384-well plate. Enzyme reactions were assembled in the microtiter plate by adding 15 μl of 2× enzyme in assay buffer (20 mM HEPES, pH 7.3, 5 mM MgCl2, 3 mM DTT, 0.01% Brij 35 and CamK Kinase, to activate AMPK) to wells which contained either DMSO or compound. The reaction was initiated with the addition of 15 μ12× substrate mixture containing 200 μM ATP, and 3.0 μM fluorescently labeled SAMS (5-FAM-HMRSAMSGLHLVKRR—COOH) in assay buffer. After 45-minute incubation at 25° C., the reaction was stopped by the addition of 70 μl stop buffer (100 mM HEPES, pH 7.3, 40 mM EDTA, 0.015% Brij 35). Phosphorylated 5-FAM SAMS product is assessed using a Caliper EZ Reader LabChip microfluidics reader. Product conversion is determined by calculating the peak heights of the substrate and product and reporting the product/(product+substrate) peak ratio. The 10-point titration data were expressed as % maximum AMP activation. The results were plotted using 4 parameter fit and the inflection point reflecting 50% of the maximum activation was reported as the EC50.
(§4) The compounds of present invention, including the compounds of Examples 1-142, were tested in the in vitro AMPK activation assay using recombinant human AMPK complex 1 (containing α1β1γ1) or AMPK complex 7 (containing α2β1γ1) and found to have increased activation of human AMPK complex 1 or complex 7 at concentrations of less than 50 μM.

Test [2] addresses T2, recombinant human AMPK complex 7 (containing α2β1γ1) (Homo sapiens, UniProt P54646+Q9Y478).
T2 construct: made in house; host or cells: Spodoptera frugiperda Sf21 cells (baculovirus, triple infection)
The test is described as follows: In vitro AMPK activation assay (AMPKSAMSF), AMPK complex 7. The format is biochemical. To be noted: for Emax: 10-point titration data expressed as % maximum AMP activation; for EC50: human AMPK complex 7, inflection point reflecting 50% of the maximum activation. On the procedure:
as §1, §2, §3, §4

What is called Emax is the maximal effect, on the per cent scale that the assay sets. In general, EC50 refers to the concentration at which the effect is half-maximal.

T2 sequence (P54646 whole entry): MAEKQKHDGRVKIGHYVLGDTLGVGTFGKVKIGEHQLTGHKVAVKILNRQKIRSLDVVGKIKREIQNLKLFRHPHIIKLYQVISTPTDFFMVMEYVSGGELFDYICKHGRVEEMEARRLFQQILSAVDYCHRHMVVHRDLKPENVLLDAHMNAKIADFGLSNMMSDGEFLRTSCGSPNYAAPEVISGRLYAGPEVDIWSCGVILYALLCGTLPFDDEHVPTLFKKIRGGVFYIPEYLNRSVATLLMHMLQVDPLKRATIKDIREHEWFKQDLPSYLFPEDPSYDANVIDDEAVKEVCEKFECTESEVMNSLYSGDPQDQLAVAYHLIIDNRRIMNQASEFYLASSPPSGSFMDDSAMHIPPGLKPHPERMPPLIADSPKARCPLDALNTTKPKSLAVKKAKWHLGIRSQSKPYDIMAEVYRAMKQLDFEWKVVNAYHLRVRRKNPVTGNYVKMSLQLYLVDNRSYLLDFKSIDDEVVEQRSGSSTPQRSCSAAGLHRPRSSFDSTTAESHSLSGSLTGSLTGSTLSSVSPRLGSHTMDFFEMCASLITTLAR
T2 sequence (Q9Y478 whole entry): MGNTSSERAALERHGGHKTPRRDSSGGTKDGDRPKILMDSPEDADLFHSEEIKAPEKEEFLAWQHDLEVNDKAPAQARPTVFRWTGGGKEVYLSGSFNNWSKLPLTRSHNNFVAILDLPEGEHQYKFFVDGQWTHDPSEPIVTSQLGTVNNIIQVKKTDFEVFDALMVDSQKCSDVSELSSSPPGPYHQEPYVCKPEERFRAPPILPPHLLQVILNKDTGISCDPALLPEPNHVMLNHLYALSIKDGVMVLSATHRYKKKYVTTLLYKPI
T2 sequence (P54619 whole entry partner): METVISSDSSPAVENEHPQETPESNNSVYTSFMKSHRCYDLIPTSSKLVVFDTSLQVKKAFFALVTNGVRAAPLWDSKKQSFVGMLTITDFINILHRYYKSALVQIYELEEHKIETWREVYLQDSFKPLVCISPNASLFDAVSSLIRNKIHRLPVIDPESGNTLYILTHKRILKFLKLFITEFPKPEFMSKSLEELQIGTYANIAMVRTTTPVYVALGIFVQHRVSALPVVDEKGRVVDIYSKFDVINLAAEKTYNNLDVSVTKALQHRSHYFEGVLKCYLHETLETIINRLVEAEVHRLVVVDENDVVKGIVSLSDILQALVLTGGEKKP
T1 sequence (Q13131 whole entry): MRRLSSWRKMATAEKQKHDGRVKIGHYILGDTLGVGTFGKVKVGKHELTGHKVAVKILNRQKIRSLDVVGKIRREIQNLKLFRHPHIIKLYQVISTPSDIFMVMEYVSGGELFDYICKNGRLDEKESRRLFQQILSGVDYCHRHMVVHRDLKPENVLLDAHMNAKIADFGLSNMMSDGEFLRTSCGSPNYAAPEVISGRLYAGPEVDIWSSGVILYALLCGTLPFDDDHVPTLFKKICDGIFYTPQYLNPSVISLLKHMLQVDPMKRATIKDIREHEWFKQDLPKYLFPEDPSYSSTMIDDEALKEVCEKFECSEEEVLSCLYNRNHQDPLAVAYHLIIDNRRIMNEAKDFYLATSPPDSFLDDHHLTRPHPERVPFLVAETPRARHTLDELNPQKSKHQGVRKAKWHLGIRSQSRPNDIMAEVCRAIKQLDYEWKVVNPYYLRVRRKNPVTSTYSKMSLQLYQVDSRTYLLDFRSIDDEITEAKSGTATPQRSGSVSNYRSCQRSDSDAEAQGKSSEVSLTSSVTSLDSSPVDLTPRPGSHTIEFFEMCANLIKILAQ
T1 sequence (Q9Y478 whole entry): as the sequence (Q9Y478 whole entry) above
T1 sequence (P54619 whole entry partner): as the sequence (P54619 whole entry partner) above

For `NC(=O)c1ncn([C@@H]2O[C@H](CO)[C@@H](O)[C@H]2O)c1N` [AICAR], the blood glucose reduction in the test with ob/ob and db/db mice is reported as 35%.
In the case of `Cc1ccc(Cc2cc3cc(-c4ccc(N5CCCC5)cc4)c(Cl)cc3[nH]2)cc1C(=O)O` [Example 1, 5-((6-chloro-5-(4-(pyrrolidin-1-yl)phenyl)-1H-indol-2-yl)methyl)-2-methylbenzoic acid], in test [1], the Emax turned out to be 581% and the half-maximal effective concentration (EC50) stood at 37 nM.
The like results for `Cc1ccc(Cc2cc3cc(-c4ccc(-c5ccc(S(C)(=O)=O)cc5)cc4)c(Cl)cc3[nH]2)cc1C(=O)O` [Example 3] were, in that order, 680% and 13 nM.
The like results for `Cc1ccc(Cc2cc3cc(-c4ccc(C5(CO)CC5)cc4)c(Cl)cc3[nH]2)cc1C(=O)O` [Example 6, 5-((6-chloro-5-(4-(1-(hydroxymethyl)cyclopropyl)phenyl)-1H-indol-2-yl)methyl)-2-methylbenzoic acid] were, in that order, 601% and 10 nM.
The like results for `CCOc1ccc(-c2cc3cc(Cc4ccc(C)c(C(=O)O)c4)[nH]c3cc2Cl)c(F)c1` [Example 8, 5-((6-chloro-5-(4-ethoxy-2-fluorophenyl)-1H-indol-2-yl)methyl)-2-methylbenzoic acid] were, in that order, 265% and 493 nM.
Consider `CS(=O)(=O)c1ccc(-c2ccc(-c3cc4cc(CCCC(=O)O)[nH]c4cc3Cl)cc2)cc1` [Example 15], for which, in test [1], the Emax was determined as 370% and the EC50 was 24 nM.
As to `Cc1ccc(Cc2cc3nc(-c4ccc(C5(CO)CC5)cc4)c(Cl)cc3[nH]2)cc1C(=O)O` [Example 18, 5-((6-chloro-5-(4-(1-(hydroxymethyl)cyclopropyl)phenyl)-1H-pyrrolo[3,2-b]pyridin-2-yl)methyl)-2-methylbenzoic acid], in test [1], the Emax came to 573% and the EC50 was 4 nM.
The like results for `CS(=O)(=O)c1ccc(-c2ccc(-c3nc4cc(CCCCO)[nH]c4cc3Cl)cc2)cc1` [Example 21] were, in that order, 590% and 2 nM.
For `CS(=O)(=O)c1ccc(-c2ccc(-c3nc4cc(CCCC(=O)O)[nH]c4cc3Cl)cc2)cc1` [Example 22] the same measures were 416% and 8 nM.
The like results for `CS(=O)(=O)c1ccc(-c2ccc(-c3nc4cc(CCCCC(=O)O)[nH]c4cc3Cl)cc2)cc1` [Example 23] were, in that order, 575% and 1 nM.
For `CS(=O)(=O)c1ccc(-c2ccc(-c3nc4cc(C[C@H]5CC[C@H](CO)CC5)[nH]c4cc3Cl)cc2)cc1` [Example 24, ((trans)-4-((6-chloro-5-(4′-(methylsulfonyl)-[1,1′-biphenyl]-4-yl)-1H-pyrrolo[3,2-b]pyridin-2-yl)methyl)cyclohexyl)methanol], in test [1], the Emax stood at 256% and the EC50 worked out at 14 nM.
For `Cc1ccc(Cc2cc3cc(-c4ccc(-c5ccncc5)cc4)c(Cl)cc3[nH]2)cc1C(=O)O` [Example 30, 5-{[6-chloro-5-(4-pyridin-4-ylphenyl)-1H-indol-2-yl]methyl}-2-methylbenzoic acid] the same measures were 583% and 15 nM.
Consider `O[C@@H]1CO[C@H]2[C@@H]1OC[C@H]2Oc1cc2nc(-c3ccc(-c4ccccc4)cc3)c(Cl)cc2[nH]1` [Example 69], for which, in test [2], the Emax came to 354% and the EC50 amounted to 5 nM.
On to `OCC1(c2ccc(-c3nc4cc(O[C@@H]5CO[C@H]6[C@@H]5OC[C@H]6O)[nH]c4cc3F)cc2)CC1` [Example 72], for which, in test [2], the Emax was 530% and the EC50 was below 3 nM.
For `O[C@@H]1CO[C@H]2[C@@H]1OC[C@H]2Oc1cc2nc(-c3ccc4c(c3)OCO4)c(Cl)cc2[nH]1` [Example 76] the same measures were 446% and below 3 nM.
Take `Cn1ccc2cc(-c3nc4cc(O[C@@H]5CO[C@H]6[C@@H]5OC[C@H]6O)[nH]c4cc3Cl)ccc21` [Example 77]: in test [2], the Emax turned out to be 472% and the EC50 was below 3 nM.
Turning to `Cc1ccc(Oc2cc3nc(-c4ccc(-c5ccccc5)cc4)c(Cl)cc3[nH]2)cc1C(=O)O` [Example 80], in test [2], the Emax was determined as 230% and the EC50 is below 3 nM.
On to `Cc1ccc(Oc2cc3nc(-c4ccc(-c5ccccc5)cc4)c(F)cc3[nH]2)cc1C(=O)O` [Example 82], for which, in test [2], the Emax came to 239% and the EC50 came to 6 nM.
For `O=S1(=O)CCN(c2ccc(-c3nc4cc(O[C@@H]5CO[C@H]6[C@@H]5OC[C@H]6O)[nH]c4cc3Cl)cc2)CC1` [Example 105] the same measures were 495% and 8 nM.
The like results for `Oc1ccccc1-c1ccc(-c2nc3cc(O[C@@H]4CO[C@H]5[C@@H]4OC[C@H]5O)[nH]c3cc2Cl)cc1` [Example 107, (3R,3aR,6R,6aR)-6-((6-chloro-5-(2′-hydroxy-[1,1′-biphenyl]-4-yl)-1H-pyrrolo[3,2-b]pyridin-2-yl)oxy)hexahydrofuro[3,2-b]furan-3-ol] were, in that order, 492% and below 1 nM.
The like results for `O[C@@H]1CO[C@H]2[C@@H]1OC[C@H]2Oc1cc2nc(-c3ccc(-c4ccc(-n5cncn5)cc4)cc3)c(Cl)cc2[nH]1` [Example 110] were, in that order, 412% and below 1 nM.
For `Cc1ccc(Oc2cc3nc(-c4ccc(C5(CO)CC5)cc4)c(Cl)cc3[nH]2)cc1P(=O)(O)O` [Example 114, (5-((6-chloro-5-(4-(1-(hydroxymethyl)cyclopropyl)phenyl)-1H-pyrrolo[3,2-b]pyridin-2-yl)oxy)-2-methylphenyl)phosphonic acid], in test [2], the Emax worked out at 333% and the EC50 was below 3 nM.
The like results for `OC[C@H]1OC[C@H](Oc2cc3nc(-c4ccc(-c5ccccc5)cc4)c(Cl)cc3[nH]2)C[C@@H]1O` [Example 121, (2R,3S,5R)-5-((5-([1,1′-biphenyl]-4-yl)-6-chloro-1H-pyrrolo[3,2-b]pyridin-2-yl)oxy)-2-(hydroxymethyl)tetrahydro-2H-pyran-3-ol] were, in that order, 213% and 71 nM.
The like results for `OC[C@H]1OC[C@H](Oc2cc3nc(-c4ccc(C5(CO)CC5)cc4)c(Cl)cc3[nH]2)C[C@@H]1O` [Example 122] were, in that order, 384% and 4 nM.
For `OC[C@H]1OC[C@@H](Oc2cc3nc(-c4ccc(-c5ccccc5)cc4)c(Cl)cc3[nH]2)[C@@H]1O` [Example 123] the same measures were 295% and 12 nM.
As for `OC[C@H]1OC[C@@H](Oc2cc3nc(-c4ccc(C5(CO)CC5)cc4)c(Cl)cc3[nH]2)[C@@H]1O` [Example 124], in test [2], the Emax was determined as 305% and the EC50 came out at 15 nM.
For `Cc1c(O[C@@H]2CC[C@H]3[C@@H]2OC[C@H]3O)[nH]c2cc(Cl)c(-c3ccc(-c4ccccc4)cc3)nc12` [Example 138] the same measures were 486% and 56 nM.
